Source: patent publication US12584896B2, “Process for quantification of metal amino acid chelates in solutions and solids” (Premex, Inc., priority 2018, dated 2026)

Test: pKa's of phytic acid (ionization of phosphate groups)
Assay type: physicochemical
Source text: A liquid sample was reacted with phytic acid. The reaction between the compounds and the phytic acid was at a pH of 3.0. Phytic acid ionization began via phosphates group in the following order: (a) P1, and P3 at a pH of from about 1.5 to about 2.0; (b) P4 and P6 at a pH of from about 2.0 to about 2.5; (c) P2 and at a pH of about 2 .5; and (d) P5 at a pH of from about 3.0 to about 5.0 (see FIGS. 1 and 2).

pKa: 9.3
SMILES: O=P(O)(O)O[C@H]1[C@H](OP(=O)(O)O)[C@@H](OP(=O)(O)O)[C@H](OP(=O)(O)O)[C@@H](OP(=O)(O)O)[C@H]1OP(=O)(O)O [phytic acid]
